{
  "source": "patent US10273218B2",
  "about": "“BCL-3 inhibitors” (University College Cardiff Consultants Limited, priority 2014, dated 2019)",
  "data": [
    {"tested_on": "human breast cancer MDA-MB-231 xenograft", "assay": "in vivo metastasis mouse Model 1 (seeding and early colonization of circulating tumour cells)", "design": "species or system mice", "conditions": "3.5 mg/Kg intraperitoneal daily for 10 days; relative luminescence of thoracic region", "description": "(§1) In all experiments, each compound was administered by intraperitoneally at 3.5 mg/kg.\n(§2) One model (Model 1) studied the effect of the compound's ability to inhibit the seeding and early colonization of circulating tumour cells at distal sites, most commonly in the lungs and liver. Human tumour cell lines were injected into the bloodstream of recipient mice, followed by single daily intraperitoneal injections of the compound (3.5 mg/kg in 1% DMSO) for 10 consecutive days. Tumour burden was monitored longitudinally for up to 8 weeks in vivo by live luminescence imaging, and subsequently histology performed on affected organs at the end of the experiment.\nas §2, with “Model 1 tested” for “One model (Model 1) studied”, “Bcl3i compounds” for “the compound's ability”, “Bcl3 inhibitor” for “the compound”\n(§3) The X axis represents the number of days after xenograft and the Y axis is the relative luminescence of the thoracic region by Xenon IVIS scanning of mice following injection of d-luciferin for 10 minutes.\n(§4) MDA-MB-231 human breast cancer cells were used in each of the three xenograft models of metastatic breast cancer.", "values": [
      {"compound": "CN1CCN(CCNC(=O)c2ccccc2NC(=O)c2ccccc2F)CC1", "note": "[Compound 49, 2-fluoro-N-(2-((2-(4-methylpiperazin-1-yl)ethyl)carbamoyl)phenyl)benzamide]", "potency of effect in Model 1 relative to compound 28": "more potent effects than compound 28"}
    ]},
    {"tested_on": "human breast cancer MDA-MB-231 xenograft", "assay": "in vivo metastasis mouse Model 1 (seeding and early colonization of circulating tumour cells)", "design": "species or system mice", "conditions": "3.5 mg/Kg intraperitoneal daily for 10 days; relative luminescence of thoracic region; versus controls and compound 12", "description": "as §1, §2\nas §2, with “Model 1 tested” for “One model (Model 1) studied”, “Bcl3i compounds” for “the compound's ability”, “Bcl3 inhibitor” for “the compound”\nas §3, §4", "values": [
      {"compound": "COc1ccc(C(=O)Nc2cccc(F)c2C(=O)NCCN2CCOCC2)c(F)c1", "note": "[Compound 28]", "inhibition of metastasis / tumour burden in Model 1": "significant reduction in tumour burden compared to controls but reduced effect compared to compound 12"},
      {"compound": "CN1CCN(CCNC(=O)c2ccccc2NC(=O)c2ccccc2F)CC1", "note": "[Compound 49, 2-fluoro-N-(2-((2-(4-methylpiperazin-1-yl)ethyl)carbamoyl)phenyl)benzamide]", "inhibition of metastasis / tumour burden in Model 1": "equivalent inhibition of metastasis in vivo to compound 12"}
    ]},
    {"tested_on": "not given", "assay": "not given", "conditions": "not given", "units": {"melting point": "°C"}, "values": [
      {"compound": "COc1ccc(C(=O)Nc2cccc(F)c2C(=O)NCCN2CCOCC2)c(F)c1", "note": "[Compound 28]", "melting point": "105 to 107"},
      {"compound": "CN1CCN(CCNC(=O)c2ccccc2NC(=O)c2ccccc2F)CC1", "note": "[Compound 49, 2-fluoro-N-(2-((2-(4-methylpiperazin-1-yl)ethyl)carbamoyl)phenyl)benzamide]", "melting point": 116},
      {"compound": "COc1cccc(C(=O)NCCc2ccccc2)c1NC(=O)c1ccccc1F", "note": "[Compound 84, 2-(2-fluorobenzamido)-3-methoxy-N-phenethylbenzamide]", "melting point": "130 to 132"},
      {"compound": "COc1cccc(C(=O)NCCc2ccccc2)c1NC(=O)c1cccc(F)c1", "note": "[Compound 85, 2-(3-fluorobenzamido)-3-methoxy-N-phenethylbenzamide]", "melting point": "99 to 101"},
      {"compound": "COc1cccc(C(=O)NCCc2ccccc2)c1NC(=O)c1ccc(F)cc1", "note": "[Compound 86, 2-(4-fluorobenzamido)-3-methoxy-N-phenethylbenzamide]", "melting point": "140 to 142"},
      {"compound": "COc1cccc(C(=O)Nc2c(OC)cccc2C(=O)NCCc2ccccc2)c1", "note": "[Compound 91, 3-methoxy-2-(3-methoxybenzamido)-N-phenethylbenzamide]", "melting point": "100 to 102"},
      {"compound": "COc1ccc(C(=O)Nc2c(OC)cccc2C(=O)NCCc2ccccc2)c(OC)c1", "note": "[Compound 93, 2-(2,4-dimethoxybenzamido)-3-methoxy-N-phenethylbenzamide]", "melting point": "132 to 134"},
      {"compound": "O=C(Nc1ccccc1C(=O)NCCc1ccccc1)c1cccnc1", "note": "[Compound 94, N-(2-(phenethylcarbamoyl)phenyl)nicotinamide]", "melting point": 94},
      {"compound": "O=C(Nc1ccccc1C(=O)NCCCc1ccccc1)c1ccccc1F", "note": "[Compound 95, 2-fluoro-N-(2-((3-phenylpropyl)carbamoyl)phenyl)benzamide]", "melting point": "61 to 63"},
      {"compound": "COc1ccc(C(=O)Nc2ccccc2C(=O)NCCCc2ccccc2)cc1", "note": "[Compound 96, 2-(4-methoxybenzamido)-N-(3-phenylpropyl)benzamide]", "melting point": "93 to 94"},
      {"compound": "O=C(NCCCc1ccccc1)c1ccccc1NC(=O)c1cccc2ccccc12", "note": "[Compound 97, N-(2-((3-phenylpropyl)carbamoyl)phenyl)-1-naphthamide]", "melting point": "98 to 100"},
      {"compound": "O=C(Nc1ccccc1C(=O)NCCCc1ccccc1)c1ccc2ccccc2c1", "note": "[Compound 98, N-(2-((3-phenylpropyl)carbamoyl)phenyl)-2-naphthamide]", "melting point": "99 to 101"},
      {"compound": "COc1cccc(C(=O)Nc2ccccc2C(=O)NCCN2CCN(C)CC2)c1", "note": "[Compound 101, 2-(3-methoxybenzamido)-N-(2-(4-methylpiperazin-1-yl)ethyl)benzamide]", "melting point": "113 to 115"},
      {"compound": "O=C(Nc1ccccc1C(=O)NCCN1CCNCC1)c1cccc(Cl)c1", "note": "[Compound 102, 2-(3-chlorobenzamido)-N-(2-(piperazin-1-yl)ethyl)benzamide]", "melting point": "59 to 61"},
      {"compound": "O=C(Nc1ncccc1C(=O)O)c1ccccc1F", "note": "[Compound 105, 2-(2-fluorobenzamido)nicotinic acid]", "melting point": "> 90"},
      {"compound": "CN1CCN(CCNC(=O)c2ccccc2NC(=O)c2ccc(F)cc2)CC1", "note": "[Compound 107, 2-(4-fluorobenzamido)-N-(2-(4-methylpiperazin-1-yl)ethyl)benzamide]", "melting point": "89 to 91"},
      {"compound": "CN1CCN(CCNC(=O)c2ccccc2NC(=O)c2ccc(C(F)(F)F)cc2)CC1", "note": "[Compound 108]", "melting point": "68 to 71"},
      {"compound": "COc1ccc(C(=O)Nc2cccc(F)c2C(=O)NCCN2CCN(C)CC2)cc1", "note": "[Compound 109, 2-fluoro-6-(4-methoxybenzamido)-N-(2-(4-methylpiperazin-1-yl)ethyl)benzamide]", "melting point": "81 to 83"},
      {"compound": "COc1cccc(C(=O)Nc2cccc(F)c2C(=O)NCCN2CCN(C)CC2)c1", "note": "[Compound 110, 2-fluoro-6-(3-methoxybenzamido)-N-(2-(4-methylpiperazin-1-yl)ethyl)benzamide]", "melting point": "108 to 110"},
      {"compound": "COc1ccc(C(=O)Nc2ccncc2C(=O)NCCN2CCOCC2)cc1", "note": "[Compound 113, 4-(4-methoxybenzamido)-N-(2-morpholinoethyl)nicotinamide]", "melting point": "105 to 107"},
      {"compound": "CN1CCN(CCNC(=O)c2ccccc2NC(=O)c2cccc(C(F)(F)F)c2)CC1", "note": "[Compound 114, N-(2-(4-methylpiperazin-1-yl)ethyl)-2-(3-(trifluoromethyl)benzamido) benzamide]", "melting point": "101 to 103"},
      {"compound": "CN1CCN(CCNC(=O)c2ccccc2NC(=O)c2ccc(OC(F)(F)F)cc2F)CC1", "note": "[Compound 115, 2-fluoro-N-(2-((2-(4-methylpiperazin-1-yl)ethyl)carbamoyl)phenyl)-4-(trifluoromethoxy)benzamide]", "melting point": "69 to 71"},
      {"compound": "COc1ccc(C(=O)Nc2ccncc2C(=O)NCCN2CCN(C)CC2)cc1", "note": "[Compound 116, 4-(4-methoxybenzamido)-N-(2-(4-methylpiperazin-1-yl)ethyl)nicotinamide]", "melting point": "83 to 85"},
      {"compound": "CN1CCN(CCNC(=O)c2ccccc2NC(=O)c2ccccc2C(F)(F)F)CC1", "note": "[Compound 117]", "melting point": "124 to 126"},
      {"compound": "COc1cccc(C(=O)NCCc2ccccc2)c1NC(=O)c1ccc2ccccc2c1", "note": "[Compound 119, N-(2-methoxy-6-(phenethylcarbamoyl)phenyl)-2-naphthamide]", "melting point": "188 to 190"},
      {"compound": "COc1cccc(C(=O)NCCCc2ccccc2)c1NC(=O)c1ccc2ccccc2c1", "note": "[Compound 120, N-(2-methoxy-6-((3-phenylpropyl)carbamoyl)phenyl)-2-naphthamide]", "melting point": "152 to 154"},
      {"compound": "COc1cccc(C(=O)NCCCN2CCOCC2)c1NC(=O)c1ccc2ccccc2c1", "note": "[Compound 121, N-(2-methoxy-6-(3-morpholinopropylcarbamoyl)phenyl)-2-naphthamide]", "melting point": "140 to 142"},
      {"compound": "COc1cc(C(=O)NCCCc2ccccc2)c(NC(=O)c2ccccc2F)c(OC)c1OC", "note": "[Compound 124, 2-(2-fluorobenzamido)-3,4,5-trimethoxy-N-(3-phenylpropyl)benzamide]", "melting point": "145 to 147"},
      {"compound": "COc1cccc(C(=O)NCCCc2ccccc2)c1NC(=O)c1cccc2ccccc12", "note": "[Compound 125, N-(2-methoxy-6-((3-phenylpropyl)carbamoyl)phenyl)-1-naphthamide]", "melting point": "150 to 152"},
      {"compound": "COc1cc(C(=O)NCCCN2CCOCC2)c(NC(=O)c2cccnc2)c(OC)c1OC", "note": "[Compound 132, N-(2,3,4-trimethoxy-6-((3-morpholinopropyl)carbamoyl)phenyl) nicotinamide]", "melting point": "120 to 122"},
      {"compound": "COc1cccc(C(=O)NCCN2CCOCC2)c1NC(=O)c1ccccc1F", "note": "[Compound 145, 2-(2-fluorobenzamido)-3-methoxy-N-(2-morpholinoethyl)benzamide]", "melting point": "105 to 107"},
      {"compound": "O=C(Nc1ccccc1C(=O)NCCN1CCOCC1)c1cccc([N+](=O)[O-])c1", "note": "[Compound 146, N-(2-morpholinoethyl)-2-(3-nitrobenzamido)benzamide]", "melting point": "147 to 149"},
      {"compound": "O=C(NCCN1CCOCC1)c1ccccc1NC(=O)c1ccccc1[N+](=O)[O-]", "note": "[Compound 147, N-(2-morpholinoethyl)-2-(2-nitrobenzamido)benzamide]", "melting point": "138 to 140"},
      {"compound": "O=C(Nc1ccccc1C(=O)NCCN1CCOCC1)c1ccc([N+](=O)[O-])cc1", "note": "[Compound 148, N-(2-morpholinoethyl)-2-(4-nitrobenzamido)benzamide]", "melting point": "147 to 149"}
    ]},
    {"tested_on": "MDA-MB-231-Luc highly metastatic human breast cancer cells", "assay": "in vivo metastasis mouse model, disease free survival", "design": "species or system Nude mice", "conditions": "3.5 mg/Kg once daily for 10 days; MDA-MB-231-Luc i.v.; monitored up to 49 days", "description": "Nude mice are injected i.v. with 200,000 highly metastatic human breast cancer cells expressing luciferase (MDA-MB-231-Luc) then are given a compound of Formula (I) or Formula (Ia) once daily for about 10 days and are monitored for tumours by total body scan using Xenogen-IVIS. Mice with a luciferase signal above background in repeated scans in any part of their torso are scored as having metastatic disease. Total light emission in the abdominal region is quantified at time points up to 49 days post surgery and plotted as mean total light yield.\nNude mice were injected i.v. with 200,000 highly metastatic human breast cancer cells expressing luciferase (MDA-MB-231-Luc) then given 3.5 mg/Kg of compound 12, reference compound A, or Reference compound B once daily for 10 days and monitored for tumours by total body scan using Xenogen-IVIS. Mice with a luciferase signal above background in repeated scans in any part of their torso were scored as having metastatic disease. Total light emission in abdominal region was quantified at time points up to 49 days post surgery and plotted as mean total light yield. Control n=12, Reference compound A n=10, Reference compound B n=4; compound 12 n=4.", "units": {"disease free survival": "%"}, "values": [
      {"compound": "O=C(Nc1ccccc1C(=O)NCCN1CCOCC1)c1ccccc1F", "note": "[Reference compound A]", "disease free survival": 70},
      {"compound": "COc1ccc(C(=O)Nc2ccccc2C(=O)NCCN2CCOCC2)cc1", "note": "[Reference compound B]", "disease free survival": 50}
    ]}
  ]
}
